Measurements from patent US20260176285A1, “SALT OF DIOXANE QUINOLINE COMPOUND, CRYSTAL FORM THEREOF, PREPARATION METHODS THEREFOR AND USES THEREOF” (Beijing Scitech-MQ Pharmaceuticals Limited, priority 2022, published 2026).

Columns and labels:
Format in all cases: physicochemical
[1] = Hygroscopicity by dynamic moisture sorption (DVS); settings: DVS, listed as Di-p-toluenesulfonate salt crystal form A-IV
Method: Dynamic moisture sorption (DVS): The curves were collected on a DVS Intrinsic of SMS (Surface Measurement Systems). At 25° C., the humidity range was 0% RH-95% RH, the step was 10% (the last step was 5%), and the dm/dt was 0.002%/min.
The hygroscopicity of the free compound of formula (I), mucate salt crystal form A-I, p-toluenesulfonate salt crystal forms A-II and B-III, di-p-toluenesulfonate salt crystal form A-IV and phosphate salt crystal form A-V was evaluated by dynamic moisture sorption instrument (DVS). Starting from 0% relative humidity (0% RH), the test collected the mass change percentage of the samples under constant temperature of 25° C. with humidity changes (0% RH-95% RH-0% RH).

[2] = Solid-state stability evaluation (XRPD, HPLC); settings: listed as Di-p-toluenesulfonate salt crystal form A-IV
Method: The following 6 test samples were placed under 25° C./60% RH and 40° C./75% RH conditions for 1 week, and then the physical and chemical stability of the samples was tested by XRPD and HPLC.
At the same time, after the p-toluenesulfonate salt crystal form A-II and crystal form B-III solids were placed at 80° C. for 24 hours, the physical and chemical stability of the samples were tested by XRPD and HPLC.

[3] = Dynamic solubility in water, SGF, FaSSIF and FeSSIF; set-up: S (dynamic solubility): unit not given here; settings: listed as Di-p-toluenesulfonate salt crystal form A-IV; for S (dynamic solubility): 37° C., feed 10 mg/mL
Method: Biological solvent Preparation • 1. […] 67.5 μL of concentrated hydrochloric acid (12 M) was added and the mixture was adjusted to a pH value of 1.8 with 1 M hydrochloric acid or 1 M NaOH solution. Purified water was added to make up to volume. • 2. Preparation of Fasted State Simulated Intestinal Fluid (FaSSIF): 0.17 g of anhydrous NaH2PO4, 0.021 g of NaOH, and 0.31 g of NaCl were weighed into a 50-mL volumetric flask. About 48 mL of purified water was added to dissolve the mixture completely, and the solution was adjusted to a pH value of 6.5 with 1 M hydrochloric acid or 1 M NaOH solution. Purified water was added to make up to volume. 0.11 g of SIF powder was added and dissolved completely. • 3. Preparation of Fed State Simulated Intestinal Fluid (FeSSIF): 0.41 mL of glacial acetic acid, 0.20 g of NaOH and 0.59 g of NaCl were weighed into a 50-mL volumetric flask. About 48 mL of purified water was added to dissolve the mixture completely, and the solution was adjusted to a pH value of 5.0 with 1 M hydrochloric acid or 1 M NaOH solution. Purified water was added to make up to volume. 0.56 g of SIF powder was added and dissolved completely.
The dynamic solubility of the free state, the mucate salt crystal form A-I, the p-toluenesulfonate salt crystal form A-II, the di-p-toluenesulfonate salt crystal form A-IV and the phosphate salt crystal form A-V of the compound of formula (I) in water and three biological solvents was evaluated.
The samples at each time point were centrifuged and filtered (0.45 μm PTFE filter head), and the HPLC concentration and pH value of the filtrate were determined.

SMILES: O=C(Nc1ccc(F)cc1)C1(C(=O)Nc2ccc(Oc3ccnc4cc(OCCCN5CCOCC5)c5c(c34)OCCO5)c(F)c2)CC1 [Example 4, N-(3-fluoro-4-((5-(3-morpholinopropoxy)-2,3-dihydro-[1,4]dioxano[2,3-f]quinolin-10-yl)oxy)phenyl)-N-(4-fluorophenyl)cyclopropane-1,1-dicarboxamide]
- Moisture adsorption (25° C./80% RH) ([1]; 25° C./80% RH): 3.70%
- Hygroscopicity ([1]; 25° C.): Hygroscopic
- Purity ([2]; 25° C./60% RH, 1 week): 99.19 area %
- Purity/initial purity ([2]; 25° C./60% RH, 1 week): 100.0%
- Purity ([2]; 40° C./75% RH, 1 week): 99.25 area %
- Purity/initial purity ([2]; 40° C./75% RH, 1 week): 100.1%
- Purity ([2]; Starting): 99.18 area %
- S (dynamic solubility) ([3]; FaSSIF, 1 hour): 0.035
- pH of the filtrate ([3]; FaSSIF, 1 hour): 5.6
- S (dynamic solubility) ([3]; FaSSIF, 2 hours): 0.080
- pH of the filtrate ([3]; FaSSIF, 2 hours): 5.2
- S (dynamic solubility) ([3]; FaSSIF, 4 hours): 0.16
- pH of the filtrate ([3]; FaSSIF, 4 hours): 5.0
- S (dynamic solubility) ([3]; FaSSIF, 24 hours): 0.20
- pH of the filtrate ([3]; FaSSIF, 24 hours): 5.0
- S (dynamic solubility) ([3]; FeSSIF, 1 hour): 1.6
- pH of the filtrate ([3]; FeSSIF, 1 hour): 4.9
- S (dynamic solubility) ([3]; FeSSIF, 2 hours): 1.8
- pH of the filtrate ([3]; FeSSIF, 2 hours): 4.8
- S (dynamic solubility) ([3]; FeSSIF, 4 hours): 1.4
- pH of the filtrate ([3]; FeSSIF, 4 hours): 4.8
- S (dynamic solubility) ([3]; FeSSIF, 24 hours): 1.0
- pH of the filtrate ([3]; FeSSIF, 24 hours): 4.9
- S (dynamic solubility) ([3]; H2O, 1 hour): 2.9
- pH of the filtrate ([3]; H2O, 1 hour): 3.7
- S (dynamic solubility) ([3]; H2O, 2 hours): 2.9
- pH of the filtrate ([3]; H2O, 2 hours): 3.9
- S (dynamic solubility) ([3]; H2O, 4 hours): 2.8
- pH of the filtrate ([3]; H2O, 4 hours): 3.8
- S (dynamic solubility) ([3]; H2O, 24 hours): 2.7
- pH of the filtrate ([3]; H2O, 24 hours): 3.8
- S (dynamic solubility) ([3]; SGF, 1 hour): 4.5
- pH of the filtrate ([3]; SGF, 1 hour): 1.9
- S (dynamic solubility) ([3]; SGF, 2 hours): 4.6
- pH of the filtrate ([3]; SGF, 2 hours): 1.9
- S (dynamic solubility) ([3]; SGF, 4 hours): 4.3
- pH of the filtrate ([3]; SGF, 4 hours): 1.9
- S (dynamic solubility) ([3]; SGF, 24 hours): 4.2
- pH of the filtrate ([3]; SGF, 24 hours): 1.9
